“Also recorded” adds a separate entry of the source. Starred links: 1 amine or outer side, 2 acyl side, 3 side chain; linkers in the order of their positions; H or OH if unused. Non-standard residues stand in square brackets, D forms with d. Residues, ends and D or L forms follow the SMILES beside them. *: point of attachment. Paclitaxel(2'-OCO-DMEDA) = CC(=O)O[C@H]1C(=O)[C@@]2(C)[C@H]([C@H](OC(=O)c3ccccc3)[C@]3(O)C[C@H](OC(=O)[C@H](OC(=O)N(C)CCN(C)*)[C@@H](NC(=O)c4ccccc4)c4ccccc4)C(C)=C1C3(C)C)[C@]1(OC(C)=O)CO[C@@H]1C[C@@H]2O; Dolaproine = CO[C@@H]([C@@H]1CCCN1)[C@@H](C)C(=O)O; Dil = CC[C@H](C)[C@H](NC)[C@@H](CC(=O)O)OC; Fmoc = O=C(OCC1c2ccccc2-c2ccccc21)*; PABC = O=C(OCc1ccc(N[*:1])cc1)[*:2]; X1 = C[C@@H](N*)[C@@H](O)c1ccccc1; NMeV = CN[C@H](C(=O)O)C(C)C
Columns and labels:
U87MG cancer cell lines = system: U87MG cancer cell lines; set-up: method as in PMID 37492088; settings: short-contact time antiproliferative assay; earlier work of the authors; read-out: IC50 against U87MG cancer cell lines; cited from earlier work
[1] = human liver S9 fraction (male, pooled, Xeno-tech); settings: 37 °C, up to 90 minutes
[2] = rat plasma (Strain: Sprague Dawley; Innovative Research); settings: 37 °C, up to 4 hours
[3] = system: bovine spleen Cathepsin B (SigmaAldrich C6286, ≥10 units/mg protein); assay: activated Cathepsin B (1.12 u/mL) in 20 mM NaOAc, 1 mM EDTA, pH 5.4, with L-cysteine; settings: 37 °C, up to 24 h
[4] = human plasma (Pooled; Innovative Research); settings: 37 °C, up to 4 hours
[5] = rat liver S9 fraction (male, pooled, Xeno-tech); settings: 37 °C, up to 90 minutes
[6] = system: Cathepsin B (SigmaAldrich C6286); assay: bovine spleen Cathepsin B in 20 mM NaOAc, 1 mM EDTA, pH 5.4, activated with L-cysteine; settings: 37 °C, up to 24 h

| Compound | fragment found [6] | IC50 (U87MG cancer cell lines) [nM] | not cleaved [1] | not cleaved [2] | cleaved bond [3] | fragment found [3] | not cleaved [4] | not cleaved [5] | not cleaved [3] |
| --- | --- | --- | --- | --- | --- | --- | --- | --- | --- |
| CC[C@H](C)[C@@H]([C@@H](CC(=O)N1CCC[C@H]1[C@H](OC)[C@@H](C)C(=O)N[C@H](C)[C@@H](O)c1ccccc1)OC)N(C)C(=O)[C@@H](NC(=O)[C@@H](NC)C(C)C)C(C)C [MMAE, monomethyl auristatin E] (H-[NMeV]V[Dil][Dolaproine]-X1) |  | 2130 |  |  |  |  |  |  |  |
| Fmoc-GFLG-PABC-diamine-PTX (Fmoc-GFLG[PABC]-{Paclitaxel(2'-OCO-DMEDA)}; SMILES CC(=O)O[C@H]1C(=O)[C@@]2(C)[C@H]([C@H](OC(=O)c3ccccc3)[C@]3(O)C[C@H](OC(=O)[C@H](OC(=O)N(C)CCN(C)C(=O)OCc4ccc(NC(=O)CNC(=O)[C@H](CC(C)C)NC(=O)[C@H](Cc5ccccc5)NC(=O)CNC(=O)OCC5c6ccccc6-c6ccccc65)cc4)[C@@H](NC(=O)c4ccccc4)c4ccccc4)C(C)=C1C3(C)C)[C@]1(OC(C)=O)CO[C@@H]1C[C@@H]2O) |  |  | 95.232% remaining at 90 min | 103.3% remaining at 240 min | Gly-Phe, 2 min; also recorded: Gly-PABC | diamine-PTX (fragment II) | 93.9% remaining at 240 min |  |  |
| Fmoc-GPLG-PABC-diamine-PTX |  |  | more than 94% intact after 1.5 h (Table S7: 94.986% at 90 min) | 100% of residual compound after 4 h (Table S7: 103.0% at 240 min) | Gly-PABC, first_seen, 2 min | diamine-PTX (fragment II), 2 min; also recorded: free PTX, 24 h | 100% of residual compound after 4 h (Table S7: 112.1% at 240 min) | more than 94% intact after 1.5 h (Table S7: 94.464% at 90 min) | no cleavage between Gly and Pro residues was observed throughout the experiment time |

The next lines start with results.

| fragment found [6] | Compound | IC50 (U87MG cancer cell lines) [nM] | not cleaved [1] | not cleaved [2] | cleaved bond [3] | fragment found [3] | not cleaved [4] | not cleaved [5] | not cleaved [3] |
| --- | --- | --- | --- | --- | --- | --- | --- | --- | --- |
| PABC-diamine-PTX (fragment I) | Fmoc-VA-PABC-diamine-PTX |  |  | 108.0% remaining at 240 min |  | PABC-diamine-PTX (fragment I); also recorded: diamine-PTX (fragment II) | 107.1% remaining at 240 min |  |  |
| PABC-diamine-PTX (fragment I) | Fmoc-VCit-PABC-diamine-PTX |  |  | 118.1% remaining at 240 min |  | PABC-diamine-PTX (fragment I); also recorded: diamine-PTX (fragment II) |  |  |  |

Reference: article PMC12444563 (ACS Omega, 2025)
